pKi: −log10 of the molar value.
Molecular target: T1, Beta-1,4-galactosyltransferase 1 (Bos taurus, UniProt P08037)
T1 sequence (P08037 whole entry): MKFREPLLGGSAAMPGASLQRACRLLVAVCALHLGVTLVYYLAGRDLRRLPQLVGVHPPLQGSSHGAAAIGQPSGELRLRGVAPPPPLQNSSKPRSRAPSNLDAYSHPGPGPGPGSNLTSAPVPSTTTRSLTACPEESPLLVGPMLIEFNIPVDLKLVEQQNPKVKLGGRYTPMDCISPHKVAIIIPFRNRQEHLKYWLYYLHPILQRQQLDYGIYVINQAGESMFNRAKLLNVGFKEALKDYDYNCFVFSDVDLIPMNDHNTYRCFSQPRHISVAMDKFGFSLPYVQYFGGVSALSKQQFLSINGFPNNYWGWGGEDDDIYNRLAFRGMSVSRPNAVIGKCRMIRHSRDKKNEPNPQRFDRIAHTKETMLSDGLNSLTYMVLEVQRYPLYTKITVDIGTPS
Test: Inhibition constant of compound was tested against Beta-galactosyltransferase from bovine milk

Compared with `O=P(O)(O)CC1=CC(O)C(O)C(CO)O1` (stereo not given), `O=c1ccn(C2O[C@H](COP(=O)(O)OP(=O)(O)CC3=CC(O)C(O)C(CO)O3)[C@@H](O)[C@H]2O)c(=O)[nH]1` (stereo not given in full) is 1.37 log units higher in pKi: 2.84 for the first, 4.21 for the second. The second binds more tightly here.

Going from `O=c1ccn(C2O[C@H](COP(=O)(O)OP(=O)(O)C3OC(O)C(O)C(O)C3O)[C@@H](O)[C@H]2O)c(=O)[nH]1` (stereo not given in full) to `O=c1ccn(C2O[C@H](COP(=O)(O)CP(=O)(O)OC3OC(O)C(O)C(O)C3O)[C@@H](O)[C@H]2O)c(=O)[nH]1` (stereo not given in full), the pKi rises from 3.78 to 4.01 (0.23 log units). The second binds more tightly here.

In the case of `O=c1ccn([C@@H]2O[C@H](COP(=O)(O)OP(=O)(O)OP(=O)(O)O)[C@@H](O)[C@H]2O)c(=O)[nH]1` [URIDINE TRIPHOSPHATE], the pKi was 3.89.

From ChEMBL document CHEMBL1150445, “A new galactosyl transferase inhibitor” (Bioorg Med Chem Lett, 1993)
